Experimental data from patent US11666630B2, “Polypeptides for managing viral infections” (priority 2016, dated 2023).
“Also recorded” adds a separate entry of the source. Read-outs that look alike come from different tables or passages of the source. Peptide text beside a SMILES is read from it.

Experiments:
[1] = test system: ZIKV; assay: Peptide treatment of Vero cells already infected with ZIKV, FFU assay of culture supernatants; type: cell-based, Zika virus; conditions: for ZIKV in culture supernatant: 3 hours post-infection, peptide 40 μM
[2] = test system: ZIKV (PRVABC59); assay: Immunofluorescence of ZIKV envelope in Vero cells; type: cell-based, Zika virus; conditions: ZIKV exposed to peptide before infection
[3] = test system: H1N1; type: cell-based, human influenza virus; conditions: incubated with virus at 37° C. for 1 hour, MDCK cells
[4] = test system: H3N2; type: cell-based, human influenza virus; conditions: incubated with virus at 37° C. for 1 hour, MDCK cells
[5] = test system: H1N2; type: cell-based, influenza virus
[6] = test system: H3N1; type: cell-based, influenza virus
[7] = test system: influenza viruses; type: cell-based, influenza virus
[8] = test system: H2 avian influenza hemagglutinin; type: binding; conditions: biotinylated Yodha peptide, streptavidin PE detection
[9] = test system: H5 avian influenza hemagglutinin; type: binding; conditions: biotinylated Yodha peptide, streptavidin PE detection
[10] = test system: H7 avian influenza hemagglutinin; type: binding; conditions: biotinylated Yodha peptide, streptavidin PE detection
[11] = test system: H9 avian influenza hemagglutinin; type: binding; conditions: biotinylated Yodha peptide, streptavidin PE detection
[12] = test system: Recombinant hemagglutinins from three H3 viruses; type: binding, influenza virus; conditions: biotinylated Yodha peptide, streptavidin PE detection
[13] = test system: Clade A HIV; assay: HIV inhibition, graded doses of peptide; type: cell-based; conditions: 40 uM peptide
Description: (§1) FIG. 10A. […] Clades A, B and C HIV viruses were exposed to graded doses (5 um-160 uM) of either Yodha peptide or control OVA peptide.

[14] = test system: Clade B HIV; assay: HIV inhibition, graded doses of peptide; type: cell-based; conditions: 40 uM peptide
Description: as §1

[15] = test system: Clade C HIV; assay: HIV inhibition, graded doses of peptide; type: cell-based; conditions: 40 uM peptide
Description: as §1

[16] = test system: ZIKV (PRVABC59 strain); conditions: for reduction of ZIKV: dose escalation, FFA; for activity of truncated and mutant Yodha peptides against ZIKV compared with parent peptide: FIG. 7E
[17] = test system: DENV 1; assay: FFA of DENV 1 incubated with peptide
[18] = test system: DENV 2; assay: FFA of DENV 2 incubated with peptide
[19] = test system: DENV 3; assay: FFA of DENV 3 incubated with peptide
[20] = test system: DENV 4; assay: FFA of DENV 4 incubated with peptide
[21] = test system: ZIKV; assay: Transmission electron microscopy of peptide-treated ZIKV; conditions: 200 μM peptide, 10 min treatment
[22] = test system: PRVABC ZIKV; assay: ZIKV infection of anti-Ifnar1 mAb treated mice, viremia and viral burden by real time PCR
[23] = test system: ZIKV; assay: ZIKV entry into Vero cells, viral RNA by qRT-PCR; conditions: ZIKV pre-incubated with 200 μM peptide

Compound: CC[C@H](C)[C@H](NC(=O)[C@@H](NC(=O)CNC(=O)[C@H](CC(C)C)NC(=O)[C@H](Cc1ccccc1)NC(=O)[C@H](Cc1ccccc1)NC(=O)[C@H](CC(C)C)NC(=O)[C@H](CC(C)C)NC(=O)[C@H](CC(C)C)NC(=O)[C@H](CCSC)NC(=O)[C@@H](N)CO)[C@@H](C)O)C(=O)N[C@@H](CO)C(=O)N[C@@H](CC(C)C)C(=O)N[C@@H](CO)C(=O)N[C@@H](CC(C)C)C(=O)N[C@@H](CS)C(=O)N[C@@H](CCC(N)=O)C(=O)N[C@@H](CC(=O)O)C(=O)N[C@@H](CC(=O)O)C(=O)N[C@@H](CCC(N)=O)C(=O)N[C@@H](CCC(=O)O)C(=O)N[C@@H](CCCNC(=N)N)C(=O)N[C@@H](CS)C(=O)O [Yodha peptide] (H-SMLLLFFLGTISLSLCQDDQERC-OH; N-terminus and C-terminus assumed)
- reduction in ZIKV production ([1]; 48 and 72 hours post-infection, peptide 40 μM added after infection): 60-70%
- ZIKV in culture supernatant [1]: not detected
- ZIKV titers in the supernatants ([1]; peptide 40 μM added after infection): significantly reduced
- expression of ZIKV envelope in Vero cells (immunofluorescence) [2]: decreased expression of ZIKV envelope
- virucidal activity against H1N1 [3]: virucidal; also recorded: neutralizes
- virucidal activity against H3N2 [4]: virucidal; also recorded: neutralizes
- virucidal activity against H1N2 [5]: virucidal
- virucidal activity against H3N1 [6]: virucidal
- activity against subtypes of influenza viruses [7]: effective against all subtypes of influenza viruses; also recorded: effective against may subtypes of influenza viruses
- binding to H2 hemagglutinin [8]: binds
- binding to H5 hemagglutinin [9]: binds
- binding to H7 hemagglutinin [10]: binds
- binding to H9 hemagglutinin [11]: binds
- binding to HA from H3 viruses [12]: binds
- inhibition of clade A HIV [13]: efficiently inhibited
- inhibition of clade B HIV [14]: efficiently inhibited
- inhibition of clade C HIV [15]: efficiently inhibited
- time of exposure to virus within which the virus is neutralized [16]: ≤ 5 min
- reduction of ZIKV ([16]; 10 μM peptide): 35%
- reduction of ZIKV ([16]; 20 μM peptide): 50%
- reduction of ZIKV ([16]; 40 μM peptide): 65%
- reduction of ZIKV ([16]; 80 μM peptide): 80%
- reduction of ZIKV ([16]; 160 μM peptide): 90%
- IC50 ([16]; PRVABC59 strain, 2 h): 20 µM
- virucidal activity against DENV 1 [17]: virucidal; also recorded: neutralizes
- neutralization of DENV 1 ([17]; 50 μM peptide): easily neutralized; also recorded: effective
- virucidal activity against DENV 2 [18]: virucidal; also recorded: neutralizes
- neutralization of DENV 2 ([18]; 50 μM peptide): easily neutralized; also recorded: effective
- virucidal activity against DENV 3 [19]: virucidal; also recorded: neutralizes
- dose needed for neutralization of DENV 3 ([19]; 50 μM versus 160 μM peptide): required higher dose
- higher dose required to be effective against DENV 4 [20]: 160 µM
- virucidal activity against DENV 4 [20]: virucidal; also recorded: neutralizes
- neutralization of DENV 4 ([20]; 50 μM peptide): easily neutralized; also recorded: effective
- morphology of ZIKV particles (electron microscopy) [21]: disruption of viral particles
- ZIKV viremia in serum ([22]; day 3 post-infection): reduces
- ZIKV viral burden in tissues ([22]; day 6, eye and spleen): reduces

Compound: OVA257-264 peptide (ESIINFEK; UniProt P01012 257-264, looked up, fragment) [OVA peptide, reference compound]
- ZIKV in culture supernatant [1]: not detected
- expression of ZIKV envelope in Vero cells (immunofluorescence) [2]: no such effect
- amount of ZIKV RNA detected versus virus-only samples [23]: Comparable amounts
- morphology of ZIKV particles (electron microscopy) [21]: intact virions

Compound: PMLLLFFLGTISLSLCQ [Short 12 peptide]
- activity of truncated and mutant Yodha peptides against ZIKV compared with parent peptide [16]: significantly improved activity
- efficiency against DENV3 infection compared with full length Yodha peptide ([19]; dose escalation): more efficient

Compound: PMLLLFFLGTISLSLCQDDQERC [S 1P Yodha]
- activity of truncated and mutant Yodha peptides against ZIKV compared with parent peptide [16]: significantly more effective

Compound: PMLLLFFLGTISLSLCQEEERGA [Variant 12]
- effect against ZIKV relative to Yodha peptide ([16]; FIG. 7C): 1.6 fold

Compound: SMLLLFFAGTISLSLCQDDQERC [peptide 8]
- virucidal activity of alanine-scanning mutants compared with Yodha peptide ([16]; Yodha set as zero, FIG. 6B): statistically significant (p=0.02) antiviral activity than the parental peptide

Compound: SMLLLFFLGTISLSLCQ [short Yodha peptide]
- activity of truncated and mutant Yodha peptides against ZIKV compared with parent peptide [16]: significantly improved activity
